Values of other authors as cited in US20080248506A1, “Method of Monitoring Anti-Tumor Activity of an Hdac Inhibitor” (Pharmacyclics, Inc., priority 2004, published 2008).

Legend:
[1] = test system: γ-H2AX
[2] = test system: H2AX; conditions: myeloid leukemia cell lines (HL60, K562, MDS92L; n=3)

Row | SMILES | γ-H2AX accumulation ([1]; compound by itself, no irradiation) | number of irradiated cells that express γ-H2AX foci ([1]; with irradiation) | H2AX phosphorylation [2]
1 | Nc1ccccc1NC(=O)c1ccc(CNC(=O)OCc2cccnc2)cc1 [MS-275] | does not produce γ-H2AX accumulation | increase the number of irradiated cells that express γ-H2AX foci | –
2 | CC(/C=C/C(=O)NO)=C\[C@@H](C)C(=O)c1ccc(N(C)C)cc1 [Trichostatin] | – | – | cause H2AX phosphorylation
